Data: US7972848B2, “Isolation and identification of cross-reactive T cells” (Opexa Therapeutics, Inc., priority 2002, dated 2011)

What was measured:
HLA-DR (DRB1*1501) = HLA-DR (DRB1*1501) (Homo sapiens, UniProt P01903+P01911); conditions: cited from earlier work
[1] = tested on: peripheral blood mononuclear cells (PBMC); test: Estimated precursor frequency of peptide-reactive and cross-reactive T cells in PBMC (proliferation assay); type: cell-based, human; conditions: for estimated frequency of T cells specific for the antigen: in PBMC, primed and tested with the same antigen; for estimated frequency of cross-reactive T cells (reactive to both peptides) primed by the peptide: primed by the labelled peptide
Description: The T cell responses to two synthetic peptides containing an identical core sequence of seven amino acids was measured to estimate the precursor frequency of cross-reactive T cells in PBMC. Two 13-mer peptides corresponding to residues 1-13 of HHV-6 U24 and residues 93-105 of MBP were synthesized and purified to greater than 95%. The MBP93-105 and HHV-6 (U24)1-13 peptides contain the identical core sequence of 7 amino acids with distinct flanking residues (MBP-IVTPRTPPPSQGK and HHV6-MDRPRTPPPSYSE) (SEQ ID NO: 8 and SEQ ID NO: 9, respectively).
Peripheral blood mononuclear cells (PBMC) were seeded at 3×10^5 cells per well in 96-well U-bottomed plates in the presence of the peptides of MBP93-105 or HHV-6 (U24)1-13 at 30 μg/ml or the whole MBP (40 μg/ml), respectively. A total of 24 wells were plated for each antigen. Seven days later, the cultures were tested for the reactivity to both peptides using AIM-V serum free medium (Gibco BRL, Grand Island, N.Y.) alone as a control. To this end, each culture was split into three identical aliquots and tested for the reactivity to MBP and the indicated peptides in duplicate. Two aliquots were tested for reactivity to peptide MBP93-105 and peptide HHV-6 (U24)1-13 at the same concentration of 30 μg/ml, respectively, in the presence of irradiated (6,000 rads) autologous PBMC (10^5 cells per well) as a source of antigen-presenting cells (APC). One aliquot served as a control (medium alone in the presence of APC). The reactivity of the end cultures was measured after 72 hours by proliferation assays as described in Zhang et al., “MHC restricted clonotypic depletion of human myelin basic protein by T cell vaccination,” Science 261:1451-1454 (1993), which is hereby incorporated by reference in its entirety.
According to the reactivity of the resulting T cells, they were categorized as mono-specific T cells or cross-reactive T cells. Mono-specific MBP- or HHV-6 reactive T cells were reactive only to the peptide originally used to prime the cells. Mono-specific T cells were defined as reactive to the given peptide when CPM was greater than 1,000 and exceeded CPM of the control (medium alone) and of the other peptide by at least three-fold. Cross-reactive T cells were reactive to both peptides after being originally primed with only one of the peptides. Cross-reactive T cells were defined as CPM of both peptides exceeded 1,000 and the control CPM by at least three-fold. The frequency of peptide-reactive T cells was then estimated by dividing the number of positive wells by the total number of PBMC seeded in the initial culture.

serum IgG antibodies = test: Serum antibody reactivity to the peptides by ELISA; type: binding, human; conditions: serum dilutions 1:50 and 1:100; MS patients compared to control subjects
Description: We further addressed whether the increased T cell responses to both peptides of HHV-6 (U24)1-13 and MBP93-105 were consistent with potential B cell sensitization to the peptides in MS patients as compared to healthy controls. To this end, serum specimens freshly obtained from the same MS patients and the control subjects were examined for specific antibody reactivity to the peptides by ELISA.
Antibody titers were determined in serum specimens by ELISA. Briefly, microtiter plates were coated overnight at 4° C. with the peptides at 5 μg/ml in a carbonate buffer (100 mM, pH 9.5). An irrelevant peptide and MBP41-59 were used as reference peptides. Non-specific binding sites were saturated with FBS-PBS for 1 hour and washed subsequently with PBS-T. Serum samples were prepared in serial dilutions (1:50, 1:100, 1:500) with FBS-PBS and 100 μl of each sample were added in duplicate wells. The rest of the procedure is the same as that described above.

[2] = tested on: MBP83-99 specific and MBP93-105 specific T cell clones; test: Cross-reactivity of T cell responses of MBP83-99 and MBP93-105 specific T cell clones; type: cell-based, human; conditions: four MBP83-99 specific and six MBP93-105 specific T cell clones; data not shown
Text: Although the T cell recognition of MBP in MS patients is relatively heterogeneous, some regions of MBP have immunodominant properties, such as the 84-102/83-99 region and the 151-170 region of MBP. The immunodominant properties of these regions may be associated with their binding affinity to HLA-DR (DRB 1*1501) preferentially expressed in the MS population. […] Although the 93-105 region of MBP homologues and the 1-13 region of HHV-6 (U24) have an overlap of 4 amino acids (PRTP) (SEQ ID NO:11) with the 83-99 immunodominant region of MBP, the PRTP sequence alone is not sufficient to form an individual T cell epitope and is unlikely to represent the immunodominant T cell epitopes. […] However, the possibility exists that the increased T cell sensitization to MBP in MS patients may be initially triggered by the HHV-6 antigen that shares the sequence homology with MBP93-105 and later spreads to other epitopes of MBP by the mechanism known as epitope spreading.

Substance | binding affinity to DRB1*1501 / HLA-DR (HLA-DR (DRB1*1501)) | estimated frequency of T cells specific for the antigen ([1]; MS patients) | estimated frequency of cross-reactive T cells (reactive to both peptides) primed by the peptide ([1]; MS patients) | estimated frequency of T cells specific for the antigen ([1]; healthy controls) | estimated frequency of cross-reactive T cells (reactive to both peptides) primed by the peptide ([1]; healthy controls) | serum antibody titers for the peptide (serum IgG antibodies) | cross-reactivity between T cell responses to MBP83-99 peptide and MBP93-105 peptide [2] | cross-reactive T cells primed by the peptide as share of all T cells recognizing peptide MBP93-105 ([1]; MS cohort) | frequency of T cells initially primed with the whole MBP and reacted to peptide HHV-6 (U24)1-13 ([1]; MS patients, p=0.08 vs control) | frequency of T cells initially primed with the whole MBP and reacted to peptide HHV-6 (U24)1-13 ([1]; control group)
84-103: peptide corresponding to the 84-103 region of MBP (DPGSRPHLIRLFSRDAPGRE; UniProt P02686 84-103, looked up, fragment) | highest binding affinity |  |  |  |  |  |  |  |  | 
144-163: peptide corresponding to the 144-163 region of MBP (HGSKYLATASTMDHARHGFL; UniProt P02686 144-163, looked up, fragment) | highest binding affinity |  |  |  |  |  |  |  |  | 
IVTPRTPPPSQGK (listed as Homo sapiens) [MBP93-105] | does not have high binding affinity | 0.53×10^−6 | 0.36×10^−6 | 0.19×10^−6 | 0.09×10^−6 | elevated | no cross-reactivity |  |  | 
MDRPRTPPPSYSE (listed as Homo sapiens) [HHV-6 (U24)1-13] |  | 0.7×10^−6 |  | 0.32×10^−6 | 0.17×10^−6 | elevated |  | greater than 50% | 0.33×10^−6 | 0.05×10^−6
myelin basic protein [whole MBP] |  | 0.6×10^−6 |  | 0.6×10^−6 |  |  |  |  |  | 
